Measured values from patent US20260297060A1, “COMPOUNDS FOR THE DEGRADATION OF MUTANT BRAF” (C4 THERAPEUTICS, INC., priority 2023, published 2026).
Read-outs that look alike come from different tables or passages of the source.

What was measured:
[1] = Example 9 pharmacokinetics assay for the PK and PD study Part I, II and III (plasma, tumor, liver); type: in vivo, BALB/c nude mice; conditions: mouse, po, 10 mg/kg, p.o., single dose, ± SEM
Procedure: For the PK and PD study Part I, agents were administered to BALB/c nude mice bearing A375 human melanoma xenografts tumors. Dabrafenib, Compound 218 and Compound 157 were dosed via p.o. once on day 1. Dabrafenib was dosed at 100 mg/kg. Compound 218 and Compound 157 were dosed at 10 mg/kg.
For the PK and PD study Part II, agents were administered to BALB/c nude mice bearing A375 human melanoma xenografts tumors. Compound 133, Compound 144 and Compound 198 were dosed at 10 mg/kg via p.o. once on day 1.
For the PK and PD study Part III, agent was administered to BALB/c nude mice bearing A375 human melanoma xenografts tumors. Compound 204 were dosed at 10 mg/kg via p.o. once on day 1.
The plasma samples were collected at predetermined time points for PK analysis. The mice were euthanized at predetermined time points post the treatment. The blood samples were collected into the 1.5 mL Eppendorf tubes containing 15 μL of 0.5 M EDTA-K2. And then the anticoagulant blood samples were centrifuged at 2,500 g at 4° C. for 15 minutes. The plasma samples were separated into 2 aliquots. The 1st was used for PK analysis, and the 2nd served as backup. The samples were stored at −80° C. before bioanalysis.
The tumor samples were collected at predetermined time points for PK and WB analysis. The tumor was dissected out and split into 3 parts. The 1st part was used for PK analysis, the 2nd part was used for WB analysis and the last one served as backup for study. The samples were transferred into pre-labeled tubes and quickly froze in liquid nitrogen within 2 minutes after dissection. The samples were stored at −80° C. before bioanalysis.
Liver samples were collected at predetermined time points for PK analysis. The left lobe of the liver was dissected out and split into 2 parts. The 1st part was used for PK analysis and the 2nd part served as the backup for the study. The samples were transferred into pre-labeled tubes and quickly froze in liquid nitrogen within 2 minutes after dissection. The samples were stored at −80° C. before bioanalysis.
The harvested plasma, tumor and liver samples were processed for pharmacokinetics analysis by LC-MS/MS with a concentration range of 5.00-10,000 ng/mL for Compound 218, Compound 157 and Compound 133 in plasma, 0.500-1,000 ng/ml for Compound 218 in liver and tumor homogenate, 0.200-400 ng/mL for Compound 157, Dabrafenib and Compound 133 in liver and tumor homogenate, 0.500-1000 ng/mL for Dabrafenib and Compound 204 in plasma, 0.200-200 ng/mL for Compound 204 in liver and tumor homogenate, 20.0-20,000 ng/mL for Compound 144 and Compound 198 in plasma, 1.00-1,000 ng/mL for Compound 144 and Compound 198 in liver and tumor homogenate.

[2] = target: T1, human bile salt export pump (BSEP) efflux transporter (Homo sapiens, UniProt O95342); experiment: BSEP Vesicular Transport Inhibition Assay (IC50 determination); type: biochemical; conditions: human BSEP (HEK293) vesicles, taurocholate 0.2 μM, 4 mM Mg-ATP, 10 concentrations, 1 replicate
T1 construct: purchased SOLVO Biotechnology Charles River Laboratories, Szeged, Hungary; host or cells: HEK293 (inside out membrane vesicles)
T1 sequence (O95342 whole entry): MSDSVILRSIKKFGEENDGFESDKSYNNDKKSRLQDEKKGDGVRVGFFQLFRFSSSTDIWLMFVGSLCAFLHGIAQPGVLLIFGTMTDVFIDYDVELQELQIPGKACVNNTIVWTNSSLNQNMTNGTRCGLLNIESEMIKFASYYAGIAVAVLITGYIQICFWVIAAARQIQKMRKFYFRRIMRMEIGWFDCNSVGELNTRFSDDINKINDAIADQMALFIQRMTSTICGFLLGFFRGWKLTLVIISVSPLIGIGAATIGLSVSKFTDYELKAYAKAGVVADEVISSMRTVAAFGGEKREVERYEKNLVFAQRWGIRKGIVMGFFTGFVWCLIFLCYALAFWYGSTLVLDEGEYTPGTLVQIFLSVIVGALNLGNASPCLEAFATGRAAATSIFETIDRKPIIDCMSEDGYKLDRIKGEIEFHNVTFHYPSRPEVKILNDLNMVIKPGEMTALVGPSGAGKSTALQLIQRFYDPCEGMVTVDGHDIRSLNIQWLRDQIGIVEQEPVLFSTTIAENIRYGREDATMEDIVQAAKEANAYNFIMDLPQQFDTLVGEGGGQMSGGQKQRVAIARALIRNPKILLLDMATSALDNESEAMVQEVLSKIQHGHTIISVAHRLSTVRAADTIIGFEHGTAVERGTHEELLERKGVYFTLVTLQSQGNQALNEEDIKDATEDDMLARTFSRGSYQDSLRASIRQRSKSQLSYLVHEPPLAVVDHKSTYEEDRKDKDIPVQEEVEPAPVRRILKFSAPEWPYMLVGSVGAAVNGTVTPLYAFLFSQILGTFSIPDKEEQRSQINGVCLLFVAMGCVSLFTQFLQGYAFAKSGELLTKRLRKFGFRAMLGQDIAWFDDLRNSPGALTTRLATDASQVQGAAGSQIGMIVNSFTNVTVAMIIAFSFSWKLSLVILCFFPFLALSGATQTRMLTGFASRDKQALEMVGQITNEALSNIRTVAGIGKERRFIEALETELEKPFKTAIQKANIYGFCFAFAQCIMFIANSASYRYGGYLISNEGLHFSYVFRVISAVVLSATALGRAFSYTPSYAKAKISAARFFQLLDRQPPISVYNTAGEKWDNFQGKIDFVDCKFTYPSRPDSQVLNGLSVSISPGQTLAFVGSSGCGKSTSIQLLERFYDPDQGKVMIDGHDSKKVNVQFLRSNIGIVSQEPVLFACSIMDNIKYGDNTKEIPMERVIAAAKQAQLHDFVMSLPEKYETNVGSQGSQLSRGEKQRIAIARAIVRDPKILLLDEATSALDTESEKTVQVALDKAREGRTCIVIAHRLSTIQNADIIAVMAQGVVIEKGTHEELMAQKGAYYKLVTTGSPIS
Procedure: The vesicular transport (VT) assays were performed using inside out membrane vesicles derived from HEK293 cells expressing the specified human bile salt export pump (BSEP) efflux transporter. The membrane vesicles were procured from SOLVO Biotechnology Charles River Laboratories, Szeged, Hungary.
The principle of the assay relies on measuring the accumulation of substrate into inside out vesicles containing the efflux transporter. By utilizing inside out vesicles, the ATP-dependent transport of substrate is directed into the vesicular lumen, where low permeability compounds are then essentially trapped.
For the IC50 screen inhibition assay, 10 concentrations of each compound were tested in the presence of ATP (active transport) in 1 replicate.
The solvent control (DMSO) was tested in the presence of ATP (active transport) and in the presence of AMP (background) in 8 replicates.
Vesicular transport inhibition assays were performed using the specific parameters for each transporter inhibition assay described in Table 53.
Table 54 specifies treatment groups and concentration of compounds, that were examined in the vesicular transport inhibition assay. Detailed data of IC50 screen inhibition assay are shown in Table 55 and detailed data of 1 concentration inhibition assay are shown in Table 56.
The vesicular transport inhibition assay was performed with 4 mM Mg-ATP. For the IC50 screen inhibition assay, 10 concentrations of each compound were tested in the presence of ATP in 1 replicate. For the 1 concentration inhibition assay, 1 concentration of each compound was tested in the presence of ATP (active transport) in 2 replicates. The solvent control (DMSO) was tested in the presence of 4 mM Mg-ATP (active transport) and in the presence of 4 mM AMP (background) in 8 replicates.
The BSEP membrane vesicle suspension was mixed with the ice-cold transport buffer, then the taurocholate probe substrate solution was added (Reaction mixture, 50 μL per well). The compounds were added to the reaction mixture at 1.5-times the final assay concentration. […].
Reaction mixtures and the start reagent (Mg-ATP or AMP in transport buffer) were pre-warmed separately for 15 minutes to reach the incubation temperature of 37° C. […]
The reaction was initiated by the addition of the start reagent (25 μL) to the reaction mixture (diluting the reaction mixture to the final concentration). […] After the 5-minute incubation at 37° C., the reaction was stopped by the addition of 250 μL ice-cold washing mix to each well. […]
The samples were then be transferred to a filter plate and washed with 200 μL cold washing mix5-times to remove any free compounds or taurocholate probe substrate. The amount of taurocholate probe substrate inside the filtered vesicles were determined by liquid scintillation counting. […]

[3] = liver, read-out: Mean Concentration in Liver
[4] = plasma, read-out: Mean Concentration in Plasma
[5] = tumor, read-out: Mean Concentration in Tumor

concentration at 6 h [1, 3]	concentration at 12 h [1, 3]	concentration at 1 h [1, 4]	concentration at 6 h [1, 4]	concentration at 12 h [1, 4]	concentration at 1 h [1, 5]	concentration at 6 h [1, 5]	concentration at 12 h [1, 5]	concentration at 24 h [1, 4]	concentration at 24 h [1, 5]	SMILES	BSEP Inhibition/IC50 ([2]; in nM)	BSEP Inhibition/IC50 [2]
606 ± 73.4 ng/g	291 ± 103 ng/g	2070 ± 407 ng/mL	104 ± 6.18 ng/mL	32.9 ± 12.1 ng/mL	74.7 ± 16.5 ng/g	112 ± 11 ng/g	45 ± 9.93 ng/g			CCN(C)S(=O)(=O)Nc1ccc(F)c(Oc2ccc3ncn(C4CC5(C4)CN(C4CCC(c6cc7c(cc6F)c(N6CCC(=O)NC6=O)nn7C)CC4)C5)c(=O)c3c2)c1C#N (single isomer, unassigned) [Compound 204, 6-[2-cyano-3-[[ethyl(methyl)sulfamoyl]amino]-6-fluoro-phenoxy]-3-[2-[4-[3-(2,4-dioxohexahydropyrimidin-1-yl)-5-fluoro-1-methyl-indazol-6-yl]cyclohexyl]-2-azaspiro[3.3]heptan-6-yl]-4-oxo-quinazoline]	>40000	
5710 ± 300 ng/g	972 ± 40.9 ng/g	6310 ± 978 ng/mL	1750 ± 96.1 ng/mL	206 ± 11.5 ng/mL	1850 ± 164 ng/g	1360 ± 21.9 ng/g	268 ± 26.7 ng/g	6.2 ± 3.47 ng/mL	13.4 ± 4.31 ng/g	CCN(C)S(=O)(=O)Nc1ccc(F)c(Oc2ccc3ncc(OC4CC5(CCN(C6CCC(c7cc8c(cc7F)c(N7CCC(=O)NC7=O)nn8C)CC6)CC5)C4)nc3c2)c1C#N (single isomer, unassigned) [Compound 218, 7-[2-cyano-3-[[ethyl(methyl)sulfamoyl]amino]-6-fluoro-phenoxy]-2-[[7-[4-[3-(2,4-dioxohexahydropyrimidin-1-yl)-5-fluoro-1-methyl-indazol-6-yl]cyclohexyl]-7-azaspiro[3.5]nonan-2-yl]oxy]quinoxaline]	13210	

Second part, the compound before the results:

SMILES	concentration at 6 h [1, 3]	concentration at 12 h [1, 3]	concentration at 1 h [1, 4]	concentration at 6 h [1, 4]	concentration at 12 h [1, 4]	concentration at 1 h [1, 5]	concentration at 6 h [1, 5]	concentration at 12 h [1, 5]	concentration at 24 h [1, 4]	concentration at 24 h [1, 5]	BSEP Inhibition/IC50 ([2]; in nM)	BSEP Inhibition/IC50 [2]
Cn1nc(N2CCC(=O)NC2=O)c2cc(F)c(N3CC4(CC(N5CCC6(CC5)C[C@@H](n5cnc7ccc(Oc8c(F)ccc(NS(=O)(=O)N9CC[C@@H](F)C9)c8C#N)cc7c5=O)CO6)C4)C3)cc21 [Compound 133, (3R)-N-[2-cyano-3-[3-[(3R)-8-[2-[3-(2,4-dioxohexahydropyrimidin-1-yl)-5-fluoro-1-methyl-indazol-6-yl]-2-azaspiro[3.3]heptan-6-yl]-1-oxa-8-azaspiro[4.5]decan-3-yl]-4-oxo-quinazolin-6-yl]oxy-4-fluoro-phenyl]-3-fluoro-pyrrolidine-1-sulfonamide]	2030 ± 179 ng/g	503 ± 207 ng/g	8880 ± 604 ng/mL	3460 ± 69.8 ng/mL	733 ± 348 ng/mL	764 ± 122 ng/g	686 ± 6.23 ng/g	316 ± 172 ng/g	23.4 ± 5.56 ng/mL	41.7 ± 26.4 ng/g		6.22 µM
CO[C@@H]1CCN(S(=O)(=O)Nc2ccc(F)c(Oc3ccc4ncn([C@H]5COC6(CCN(C7CC8(C7)CN(c7cc9c(cc7F)c(N7CCC(=O)NC7=O)nn9C)C8)CC6)C5)c(=O)c4c3)c2C#N)C1 [Compound 144, (3R)-N-[2-cyano-3-[3-[(3R)-8-[2-[3-(2,4-dioxohexahydropyrimidin-1-yl)-5-fluoro-1-methyl-indazol-6-yl]-2-azaspiro[3.3]heptan-6-yl]-1-oxa-8-azaspiro[4.5]decan-3-yl]-4-oxo-quinazolin-6-yl]oxy-4-fluoro-phenyl]-3-methoxy-pyrrolidine-1-sulfonamide]	1890 ± 584 ng/g	873 ± 234 ng/g	11600 ± 2260 ng/mL	6220 ± 1880 ng/mL	1240 ± 395 ng/mL	946 ± 172 ng/g	1180 ± 406 ng/g	616 ± 127 ng/g	143 ± 15.4 ng/mL	183 ± 45.4 ng/g		7.94 µM
CO[C@H]1CCN(S(=O)(=O)Nc2ccc(F)c(Oc3ccc4ncn([C@H]5COC6(CCN(C7CC8(C7)CN(c7cc9c(cc7F)c(N7CCC(=O)NC7=O)nn9C)C8)CC6)C5)c(=O)c4c3)c2C#N)C1 [Compound 157, (3S)-N-[2-cyano-3-[3-[(3R)-8-[2-[3-(2,4-dioxohexahydropyrimidin-1-yl)-5-fluoro-1-methyl-indazol-6-yl]-2-azaspiro[3.3]heptan-6-yl]-1-oxa-8-azaspiro[4.5]decan-3-yl]-4-oxo-quinazolin-6-yl]oxy-4-fluoro-phenyl]-3-methoxy-pyrrolidine-1-sulfonamide]	2000 ± 132 ng/g	1320 ± 233 ng/g	14700 ± 2000 ng/mL	14700 ± 1560 ng/mL	5420 ± 1400 ng/mL	1460 ± 376 ng/g	1990 ± 120 ng/g	1470 ± 329 ng/g	161 ± 40.1 ng/mL	183 ± 137 ng/g		8.83 µM
